# Results published in US11492346B2, “Benzisoxazole sulfonamide derivatives” (Pfizer Inc., priority 2019, dated 2022).
# Like-named read-outs stand apart in the source and are kept apart here.
# Assays:
# Type in all cases: biochemical
# KAT6B = KAT6B (Homo sapiens (Human), UniProt Q8WYB5); test: KAT assay (SAMDI mass spectrometry), KAT6B
# KAT8 = KAT8 (Homo sapiens (Human), UniProt Q9H7Z6); test: KAT assay (SAMDI mass spectrometry), KAT8; conditions: read-out: KAT8 Ki at 1 μM AcCoA
# KAT7 = KAT7 (Homo sapiens (Human), UniProt O95251); test: KAT assay (SAMDI mass spectrometry), KAT7;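 also: Baculovirus-expressed enzyme acetylating a histone peptide at room temperature, percent conversion from product and substrate peak areas, Ki from a Morrison tight-binding competitive fit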
# KAT5 = KAT5 (Homo sapiens (Human), UniProt Q92993); test: KAT assay (SAMDI mass spectrometry), KAT5; conditions: read-out: KAT5 Ki at 1 μM AcCoA;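 also: Baculovirus-expressed KAT5 acetylating a histone H4 peptide at room temperature, read as percent conversion to product, Ki from a Morrison tight-binding competitive fit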
# KAT6A = KAT6A (Homo sapiens (Human), UniProt Q92794); test: KAT assay (SAMDI mass spectrometry), KAT6A;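 also: Baculovirus-expressed KAT6A acetylating histone H3 (1-21) peptide (2 µM), 30-60 min at room temperature, % product conversion fitted to Morrison equation for tight-binding competitive inhibitors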
# [1] = 25 μM AcCoA, read-out: KAT6b Ki at 25 μM AcCoA
# [2] = read-out: KAT6b Ki at 1 μM AcCoA, 1 μM AcCoA
# [3] = read-out: KAT7 Ki at 1 μM AcCoA
# [4] = read-out: KAT6a Ki at 1 μM AcCoA, 1 μM AcCoA
# [5] = read-out: KAT6a Ki at 10 μM AcCoA, 10 μM AcCoA
# KAT6A, sequence (Q92794 whole entry): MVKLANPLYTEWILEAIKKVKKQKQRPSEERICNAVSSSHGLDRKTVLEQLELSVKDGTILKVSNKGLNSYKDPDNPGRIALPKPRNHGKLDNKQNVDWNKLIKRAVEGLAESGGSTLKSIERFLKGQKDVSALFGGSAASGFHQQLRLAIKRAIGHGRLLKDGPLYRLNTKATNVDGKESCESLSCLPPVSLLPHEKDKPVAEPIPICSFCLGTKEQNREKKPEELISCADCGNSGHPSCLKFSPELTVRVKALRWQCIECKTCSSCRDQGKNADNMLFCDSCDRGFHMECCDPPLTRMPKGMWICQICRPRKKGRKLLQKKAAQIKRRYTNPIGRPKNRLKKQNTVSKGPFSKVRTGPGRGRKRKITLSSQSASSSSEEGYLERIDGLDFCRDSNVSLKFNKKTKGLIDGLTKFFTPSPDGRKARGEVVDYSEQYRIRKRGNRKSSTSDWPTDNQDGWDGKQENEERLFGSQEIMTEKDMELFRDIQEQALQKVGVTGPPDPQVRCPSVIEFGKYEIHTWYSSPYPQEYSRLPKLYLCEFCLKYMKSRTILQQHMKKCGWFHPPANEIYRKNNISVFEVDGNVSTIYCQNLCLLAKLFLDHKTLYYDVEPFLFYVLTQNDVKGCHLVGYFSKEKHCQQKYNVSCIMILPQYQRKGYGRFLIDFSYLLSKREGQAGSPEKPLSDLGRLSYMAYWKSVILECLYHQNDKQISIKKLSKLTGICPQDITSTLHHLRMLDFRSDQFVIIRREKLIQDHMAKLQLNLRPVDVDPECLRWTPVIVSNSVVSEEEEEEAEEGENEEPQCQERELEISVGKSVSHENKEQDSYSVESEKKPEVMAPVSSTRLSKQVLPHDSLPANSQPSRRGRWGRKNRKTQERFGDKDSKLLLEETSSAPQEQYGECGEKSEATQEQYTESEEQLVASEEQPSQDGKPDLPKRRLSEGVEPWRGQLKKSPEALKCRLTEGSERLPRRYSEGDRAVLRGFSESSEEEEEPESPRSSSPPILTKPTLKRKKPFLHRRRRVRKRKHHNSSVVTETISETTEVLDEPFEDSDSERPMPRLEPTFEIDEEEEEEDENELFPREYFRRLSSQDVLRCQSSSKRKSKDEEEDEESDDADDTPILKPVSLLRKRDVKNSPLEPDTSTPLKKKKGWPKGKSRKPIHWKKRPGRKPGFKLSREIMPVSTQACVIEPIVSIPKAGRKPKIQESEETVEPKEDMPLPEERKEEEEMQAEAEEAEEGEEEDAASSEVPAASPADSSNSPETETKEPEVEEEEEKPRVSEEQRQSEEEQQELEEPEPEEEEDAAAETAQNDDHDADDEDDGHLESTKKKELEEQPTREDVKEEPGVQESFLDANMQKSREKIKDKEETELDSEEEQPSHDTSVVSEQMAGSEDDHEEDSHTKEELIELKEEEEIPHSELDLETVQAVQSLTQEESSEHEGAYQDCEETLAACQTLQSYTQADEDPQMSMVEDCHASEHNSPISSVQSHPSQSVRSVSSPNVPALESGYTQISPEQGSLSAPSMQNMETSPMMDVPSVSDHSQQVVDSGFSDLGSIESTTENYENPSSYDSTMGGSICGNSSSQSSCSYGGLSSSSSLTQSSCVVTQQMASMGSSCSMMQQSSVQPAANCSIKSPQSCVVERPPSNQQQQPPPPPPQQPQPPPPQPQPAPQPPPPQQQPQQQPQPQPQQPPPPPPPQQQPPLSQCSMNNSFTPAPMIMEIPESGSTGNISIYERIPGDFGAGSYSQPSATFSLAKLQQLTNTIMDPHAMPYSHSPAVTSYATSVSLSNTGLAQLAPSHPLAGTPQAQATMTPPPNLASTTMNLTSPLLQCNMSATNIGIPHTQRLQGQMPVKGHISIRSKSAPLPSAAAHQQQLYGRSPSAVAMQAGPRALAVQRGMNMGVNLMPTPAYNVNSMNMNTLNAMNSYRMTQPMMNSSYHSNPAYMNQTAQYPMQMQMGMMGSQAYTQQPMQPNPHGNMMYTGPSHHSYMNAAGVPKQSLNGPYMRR
# KAT7, sequence (O95251 whole entry): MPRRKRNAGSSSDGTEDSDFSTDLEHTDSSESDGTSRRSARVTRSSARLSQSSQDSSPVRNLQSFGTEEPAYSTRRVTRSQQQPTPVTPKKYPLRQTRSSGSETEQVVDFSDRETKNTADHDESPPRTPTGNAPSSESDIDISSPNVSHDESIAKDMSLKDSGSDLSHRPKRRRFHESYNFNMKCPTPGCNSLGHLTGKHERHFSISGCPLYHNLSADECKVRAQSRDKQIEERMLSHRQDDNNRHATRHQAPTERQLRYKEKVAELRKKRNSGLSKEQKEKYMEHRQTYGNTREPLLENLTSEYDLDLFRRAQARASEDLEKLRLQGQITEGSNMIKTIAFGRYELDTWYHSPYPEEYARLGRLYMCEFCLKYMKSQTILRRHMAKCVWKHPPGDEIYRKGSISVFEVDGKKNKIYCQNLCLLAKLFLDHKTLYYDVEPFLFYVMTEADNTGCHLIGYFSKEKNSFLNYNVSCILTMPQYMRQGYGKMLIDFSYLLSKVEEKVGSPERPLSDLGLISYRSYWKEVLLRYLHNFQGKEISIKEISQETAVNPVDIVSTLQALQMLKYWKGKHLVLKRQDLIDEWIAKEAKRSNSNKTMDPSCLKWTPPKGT
# KAT5, sequence (Q92993 whole entry): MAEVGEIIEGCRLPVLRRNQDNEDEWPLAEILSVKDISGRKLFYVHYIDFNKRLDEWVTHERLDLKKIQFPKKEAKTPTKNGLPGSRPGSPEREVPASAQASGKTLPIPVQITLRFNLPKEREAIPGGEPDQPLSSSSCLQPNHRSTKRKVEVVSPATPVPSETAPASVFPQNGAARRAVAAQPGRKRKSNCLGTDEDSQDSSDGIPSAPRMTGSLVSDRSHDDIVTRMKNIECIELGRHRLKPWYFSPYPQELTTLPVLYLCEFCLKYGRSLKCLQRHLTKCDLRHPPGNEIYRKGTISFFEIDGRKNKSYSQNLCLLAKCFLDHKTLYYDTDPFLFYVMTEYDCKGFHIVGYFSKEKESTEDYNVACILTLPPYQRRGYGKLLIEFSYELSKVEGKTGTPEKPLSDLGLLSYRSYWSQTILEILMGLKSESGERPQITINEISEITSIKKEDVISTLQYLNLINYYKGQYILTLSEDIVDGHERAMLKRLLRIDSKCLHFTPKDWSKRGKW
# KAT8, sequence (Q9H7Z6 whole entry): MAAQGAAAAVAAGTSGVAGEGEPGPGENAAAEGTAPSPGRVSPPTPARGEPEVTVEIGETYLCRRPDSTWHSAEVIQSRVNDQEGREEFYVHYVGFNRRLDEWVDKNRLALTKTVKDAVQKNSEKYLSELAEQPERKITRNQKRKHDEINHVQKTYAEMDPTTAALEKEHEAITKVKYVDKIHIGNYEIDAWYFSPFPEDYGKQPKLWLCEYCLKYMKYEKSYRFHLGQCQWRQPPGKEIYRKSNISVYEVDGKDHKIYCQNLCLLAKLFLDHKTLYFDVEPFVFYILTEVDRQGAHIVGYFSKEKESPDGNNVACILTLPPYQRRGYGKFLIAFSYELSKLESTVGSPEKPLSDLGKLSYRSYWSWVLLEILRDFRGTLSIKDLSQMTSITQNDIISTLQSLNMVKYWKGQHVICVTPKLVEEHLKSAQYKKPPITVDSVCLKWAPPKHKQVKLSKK
Structure (SMILES),Ki (KAT6B; [1]) [nM],Ki (KAT6B; [2]) [nM],Ki (KAT8) [nM],Ki (KAT7; [3]) [nM],Ki (KAT5) [nM],Ki (KAT6A; [4]) [nM],Ki (KAT6A; [5]) [nM],Ki (KAT7; KAT7 Ki at 1 μM AcCoA) [nM],"Ki (KAT6A; KAT6a Ki at 1 μM AcCoA, 1 μM AcCoA) [nM]","Ki (KAT6A; KAT6a Ki at 10 μM AcCoA, 10 μM AcCoA) [nM]"
COc1cc(Br)cc(OC)c1S(=O)(=O)Nc1noc2cc(Cn3cccn3)cc(OC)c12 [Example 8],6.63,5.74,2870,60,1710,1.54,3.23,–,–,–
COc1cc(OC)c(S(=O)(=O)Nc2noc3cc(Cn4cccn4)cc(OC)c23)c(OC)c1 [Example 14],1.05,–,420,50,270,1.12,0.49,–,–,–
COc1ccc(OC(F)(F)F)cc1S(=O)(=O)Nc1noc2cc(Cn3cccn3)cc(OC)c12 [Example 16],1.73,–,1750,120,830,1.27,0.64,–,–,–
COc1ccc(C(C)C)cc1S(=O)(=O)Nc1noc2cc(Cn3cccn3)cc(OC)c12 [Example 18],0.96,–,100,120,130,0.83,0.38,–,–,–
COc1cc2c(cc1S(=O)(=O)Nc1noc3cc(Cn4cccn4)cc(OC)c13)CCCC2 [Example 20],4.08,1.78,470,–,150,0.34,0.87,–,–,–
COc1cccc(OC)c1S(=O)(=O)Nc1noc2cc(Cn3ccnn3)cc(OC)c12 [Example 22],–,13.2,17400,12900,11700,16.5,–,–,–,–
COc1cc(C2CC2)cc(OC)c1S(=O)(=O)Nc1noc2cc(Cn3cccn3)cc(OC)c12 [Example 24],1.89,–,160,20,190,1.01,0.46,–,–,–
CCOc1cc(Cn2cccn2)cc2onc(NS(=O)(=O)c3c(OC)cccc3OC)c12 [Example 25],4.46,–,12500,1080,12500,2.74,1.83,–,–,–
COc1cc(OC)c(S(=O)(=O)Nc2noc3cc(Cn4cccn4)cc(OC4CC4)c23)c(OC)c1 [Example 26],12.7,–,27100,7790,125000,8.01,3.16,–,–,–
COc1cccc(OC)c1S(=O)(=O)Nc1noc2cc(Cn3cccn3)c(C3CC3)cc12 [Example 31],0.89,–,–,56,–,0.32,–,–,–,–
COc1ccccc1S(=O)(=O)Nc1noc2cc(Cn3cccn3)ccc12 [Example 34],4.2,–,–,1200,–,30,–,–,–,–
COc1cc2c(NS(=O)(=O)c3c(OC)cccc3OC)noc2cc1Cn1cccn1 [Example 39],0.26,–,–,8,–,0.74,–,–,–,–
COc1cc2c(cc1S(=O)(=O)Nc1noc3cc(Cn4cccn4)cc(OC)c13)CCCO2 [Example 42],0.48,–,–,160,–,0.72,–,–,–,–
"COc1cccc(OC)c1S(=O)(=O)Nc1noc2cc(Cc3ccccn3)cc(OC)c12 [Example 107, 2,6-dimethoxy-N-[4-methoxy-6-(pyridin-2-ylmethyl)-1,2-benzoxazol-3-yl]benzenesulfonamide]",2.9,–,–,370,–,1.7,2.6,–,–,–
"COc1cccc(OC)c1S(=O)(=O)Nc1noc2cc(Cc3ncco3)cc(OC)c12 [Example 110, 2,6-dimethoxy-N-[4-methoxy-6-(1,3-oxazol-2-ylmethyl)-1,2-benzoxazol-3-yl]benzenesulfonamide]",8.8,–,–,–,–,–,–,230,2.5,2.1
COc1cccc(OC)c1S(=O)(=O)Nc1noc2cc(Cc3ncccn3)cc(OC)c12 [Example 116],25,–,–,95,–,3,–,–,–,–
COc1cccc(OC)c1S(=O)(=O)Nc1noc2cc(Cc3cocn3)cc(OC)c12 [Example 127],–,–,–,137,–,8.6,–,–,–,–
"COc1cccc(OC)c1S(=O)(=O)Nc1noc2cc(Cn3cccn3)c(F)c(OC)c12 [Example 128, N-{5-fluoro-4-methoxy-6-[(1H-pyrazol-1-yl)methyl]-1,2-benzoxazol-3-yl}-2,6-dimethoxybenzene-1-sulfonamide]",1.2,–,–,49,–,0.54,0.59,–,–,–
COc1ccccc1S(=O)(=O)Nc1noc2cc(Cn3cccn3)c(F)c(OC)c12 [Example 129],–,–,–,10.6,–,0.33,–,–,–,–
COc1ccccc1S(=O)(=O)Nc1noc2cc(Cn3cccn3)cc(C3CC3)c12 [Example 130],–,–,–,100,–,0.77,–,–,–,–
COc1ccccc1S(=O)(=O)Nc1noc2cc(Cn3cccn3)c(C)cc12 [Example 132],–,–,–,124,–,4.1,–,–,–,–
COc1ccccc1S(=O)(=O)Nc1noc2cc(Cn3nccn3)cc(OC)c12 [Example 133],–,–,–,19.2,–,2.9,–,–,–,–

# More lines, in order of falling Ki (KAT6A; [4]), values ahead:
Ki (KAT6B; [1]) [nM],Ki (KAT6B; [2]) [nM],Ki (KAT8) [nM],Ki (KAT7; [3]) [nM],Ki (KAT5) [nM],Ki (KAT6A; [4]) [nM],Ki (KAT6A; [5]) [nM],Ki (KAT7; KAT7 Ki at 1 μM AcCoA) [nM],"Ki (KAT6A; KAT6a Ki at 1 μM AcCoA, 1 μM AcCoA) [nM]","Ki (KAT6A; KAT6a Ki at 10 μM AcCoA, 10 μM AcCoA) [nM]",Structure (SMILES)
–,–,–,6290,–,700,–,–,–,–,COc1cccc(OC)c1S(=O)(=O)Nc1noc2cc(Cc3cnn(C)c3)cc(OC)c12 [Example 124]
–,–,–,662,–,28.3,–,–,–,–,Cc1ccc(S(=O)(=O)Nc2noc3cc(Cn4cccn4)c(C)cc23)cc1C [Example 131]
–,28.3,4460,230,4530,21,–,–,–,–,COc1cccc(OC)c1S(=O)(=O)Nc1noc2cc(Cn3cc(F)cn3)cc(OC)c12 [Example 7]
43,–,–,630,–,12,–,–,–,–,COCc1ccc(OC)c(S(=O)(=O)Nc2noc3cc(Cn4cccn4)c(F)cc23)c1 [Example 44]
–,8.63,17400,1720,9790,3.79,1.54,–,–,–,"COc1cccc(OC)c1S(=O)(=O)Nc1noc2cc(Cn3nccc3C)cc(OC)c12 [Example 3, 2,6-dimethoxy-N-{4-methoxy-6-[(5-methyl-1H-pyrazol-1-yl)methyl]-1,2-benzoxazol-3-yl}benzene-1-sulfonamide]"
–,14.6,3260,5960,12500,2.86,5.57,–,–,–,COc1cccc(OC)c1S(=O)(=O)Nc1noc2cc(Cn3cccn3)cc(OC3CC3)c12 [Example 11]
–,2.27,19400,9320,60200,2.72,4.65,–,–,–,COc1cccc(OC)c1S(=O)(=O)Nc1noc2cc(Cn3cccn3)cc(OC(C)C)c12 [Example 10]
3.44,–,960,150,800,2.18,–,–,–,–,COc1ccc(OC)c(S(=O)(=O)Nc2noc3cc(Cn4cccn4)cc(OC)c23)c1 [Example 19]
2,–,–,220,–,1.9,–,–,–,–,COc1cccc(OC)c1S(=O)(=O)Nc1noc2cc(Cc3ccon3)cc(OC)c12 [Example 114]
2.14,1.88,1070,920,1170,1.82,1.7,–,–,–,COCc1ccc(OC)c(S(=O)(=O)Nc2noc3cc(Cn4cccn4)cc(OC)c23)c1 [Example 12]
–,2.5,3320,120,980,1.5,2.32,–,–,–,COc1cccc(F)c1S(=O)(=O)Nc1noc2cc(Cn3cccn3)cc(OC)c12 [Example 6]
2.1,–,–,60,–,1.4,–,–,–,–,CCc1ccc(OC)c(S(=O)(=O)Nc2noc3cc(Cn4cccn4)c(F)cc23)c1 [Example 32]
1.14,–,830,120,1030,1.23,–,–,–,–,COc1ccc2c(c1S(=O)(=O)Nc1noc3cc(Cn4cccn4)cc(OC)c13)CCCC2 [Example 21]
1.34,0.87,1970,40,2070,1.22,1.24,–,–,–,COc1cccc(OC)c1S(=O)(=O)Nc1noc2cc(Cn3nccn3)cc(OC)c12 [Example 23]
–,2.68,660,80,530,1.11,1.38,–,–,–,COc1ccc(S(=O)(=O)Nc2noc3cc(Cn4cccn4)cc(OC)c23)c(OC)c1 [Example 5]
1.21,–,220,90,150,0.7,0.51,–,–,–,COc1ccc(C)cc1S(=O)(=O)Nc1noc2cc(Cn3cccn3)cc(OC)c12 [Example 17]
0.6,–,170,30,70,0.65,0.35,–,–,–,CCc1cc(S(=O)(=O)Nc2noc3cc(Cn4cccn4)cc(OC)c23)c(OC)cc1OC [Example 15]
1.14,0.68,110,50,120,0.55,0.43,–,–,–,"CCc1ccc(OC)c(S(=O)(=O)Nc2noc3cc(Cn4cccn4)cc(OC)c23)c1 [Example 1, 5-ethyl-2-methoxy-N-{4-methoxy-6-[(1H-pyrazol-1-yl)methyl]-1,2-benzoxazol-3-yl}benzene-1-sulfonamide]"
0.36,–,–,230,–,0.36,–,–,–,–,COc1cccc(OC)c1S(=O)(=O)Nc1noc2cc(Cn3cccn3)c(OC(F)F)cc12 [Example 41]
